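Where inhibition never reached the appropriate level, the endpoint shown equals the highest concentration tested. Otherwise, values were interpolated linearly from a five-concentration, 48-hour dose response in 96-well plates. At the GI50, growth is halved.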 Active and inactive are the calls of the source. Rule as the data show it: active = GI50 up to about 1.1 µM and inactive = higher.
Legend:
Assay in all cases: inhibition of tumour cell growth, NCI panel, 48 h
HOP-92 = system: HOP-92
KM12 = system: KM12
SK-MEL-28 = system: SK-MEL-28
MDA-MB-231 = system: MDA-MB-231
HL-60 = system: HL-60
DU-145 = system: DU-145
UACC-62 = system: UACC-62
MCF7 = system: MCF7
SF-539 = system: SF-539
CCRF-CEM = system: CCRF-CEM
Hs-578T = system: Hs-578T
OVCAR-8 = system: OVCAR-8
SK-MEL-2 = system: SK-MEL-2
Malme-3M = system: Malme-3M
M14 = system: M14
SNB-19 = system: SNB-19
HT-29 = system: HT-29
SK-MEL-5 = system: SK-MEL-5

Measured: GI50

O=C(O)CCCc1nc2c(n1-c1ccccc1)C(=O)c1ccccc1C2=O
inactive: HOP-92 49 µM | KM12 31.3 µM | SK-MEL-28 > 100 µM | MDA-MB-231 77.3 µM | HL-60 37.4 µM | DU-145 > 100 µM | UACC-62 32.8 µM | MCF7 32.6 µM | SF-539 94 µM | CCRF-CEM 40.7 µM | Hs-578T > 100 µM | OVCAR-8 53.5 µM | SK-MEL-2 97.9 µM | Malme-3M 21.6 µM | M14 19.1 µM | SNB-19 > 100 µM

Cc1ccc(/C=C2\NC(=S)N(CN3CCOCC3)C2=O)cc1
inactive: HOP-92 > 100 µM | KM12 > 100 µM | SK-MEL-28 > 100 µM | MDA-MB-231 > 100 µM | HT-29 > 100 µM | DU-145 > 100 µM | SK-MEL-5 > 100 µM | UACC-62 > 100 µM | MCF7 66.5 µM | CCRF-CEM > 100 µM | Hs-578T > 100 µM | OVCAR-8 > 100 µM | SK-MEL-2 > 100 µM | Malme-3M > 100 µM | M14 > 100 µM | SNB-19 > 100 µM

COCC#C[C@@]1(O)CCCCC1CC(OC)OC (stereo partly specified)
inactive: HOP-92 94.6 µM | KM12 > 100 µM | SK-MEL-28 > 100 µM | MDA-MB-231 > 100 µM | HL-60 55.1 µM | HT-29 > 100 µM | DU-145 > 100 µM | SK-MEL-5 > 100 µM | UACC-62 34.9 µM | MCF7 60 µM | CCRF-CEM 38.5 µM | Hs-578T > 100 µM | OVCAR-8 51.6 µM | SK-MEL-2 > 100 µM | Malme-3M 64.9 µM | M14 > 100 µM | SNB-19 > 100 µM

O=C1[C@@H]2C[C@@H](O)CN2C(=O)c2ccccc2N1CCCO
inactive: HOP-92 > 100 µM | KM12 > 100 µM | SK-MEL-28 > 100 µM | MDA-MB-231 > 100 µM | HT-29 > 100 µM | DU-145 > 100 µM | UACC-62 > 100 µM | MCF7 > 100 µM | SF-539 > 100 µM | Hs-578T > 100 µM | OVCAR-8 > 100 µM | SK-MEL-2 > 100 µM | M14 > 100 µM | SNB-19 > 100 µM

C[C@H](CCC1SC1(C)C)C1CCC2(C)C3=C(CC[C@]12C)[C@@]1(C)CC[C@H](O)C(C)(C)C1CC3 (stereo partly specified)
inactive: HOP-92 > 100 µM | KM12 > 100 µM | SK-MEL-28 > 100 µM | HL-60 > 100 µM | HT-29 > 100 µM | SK-MEL-5 > 100 µM | UACC-62 > 100 µM | CCRF-CEM > 100 µM | OVCAR-8 > 100 µM | SK-MEL-2 > 100 µM | Malme-3M > 100 µM | M14 > 100 µM | SNB-19 > 100 µM

Reference: ChEMBL document CHEMBL1201862, “PubChem BioAssay data set” (2004)
